{"source": "patent US7125854B2", "about": "“Bicyclic carbohydrates as antiprotozoal bioactive for the treatment of infections caused by parasites” (Kemin Pharma B.V.B.A., priority 2003, dated 2006)", "key": {"P. falciparum [1]": {"system": "P. falciparum", "experiment": "WHO screening against P. falciparum (Table 1)", "type": "cell-based", "settings": "Plasmodium falciparum; Table 1, WHO screening", "description": "(§1) Compound A1 was screened against Trypanosoma brucei by World Health Organization (Switzerland) using its established screening service."}, "P. falciparum [2]": {"system": "P. falciparum", "experiment": "Screening against P. falciparum (Table 2)", "type": "cell-based, Plasmodium falciparum"}, "T. cruzi [3]": {"system": "T. cruzi", "experiment": "WHO screening against T. cruzi (Table 1)", "type": "cell-based, Trypanosoma cruzi", "settings": "Table 1, WHO screening"}, "T. brucei rhodesiense [4]": {"system": "T. brucei rhodesiense", "experiment": "WHO screening against Trypanosoma brucei (Table 1)", "type": "cell-based", "settings": "read-out: IC50 T. brucei rhodesiense", "description": "as §1"}, "human cell line (MRC-5)": {"system": "human cell line (MRC-5)", "experiment": "Cytotoxicity assay on a human cell line (MRC-5)", "type": "cell-based", "settings": "read-out: Cytox"}, "T. cruzi [5]": {"system": "T. cruzi", "experiment": "Screening against T. cruzi (Table 2)", "type": "cell-based, Trypanosoma cruzi"}, "T. brucei rhodesiense [6]": {"system": "T. brucei rhodesiense", "experiment": "Screening against T. brucei rhodesiense (Table 2)", "type": "cell-based, Trypanosoma brucei rhodesiense"}, "[7]": {"system": "Leishmania donovani MHOM/ET/67/L82", "experiment": "Leishmania donovani amastigotes in primary peritoneal mouse macrophages, parasite growth after 96 hours", "type": "cell-based", "settings": "96 hours of incubation, read-out: IC50 L. donovani", "protocol": "One strain of Leishmania spp. (Leishmania.donovani MHOM/ET/67/L82) is used. The strain is maintained in the hamster. Amastigotes are collected from the spleen of an infected hamster and spleen parasite burden is assessed using the Stauber technique or amastigotes are counted in the haemocytometer after 1:100 dilution in trypan blue.\nPrimary peritoneal mouse (CDI or NMRI) macrophages are collected 1 day after a macrophage production stimulation with an i.p injection of 2 ml of 2% starch in distilled water. All cultures and assays are conducted at 37° C. under an atmosphere of 5% CO2. Ten mg/ml compound stock solutions are prepared as advised by the supplier, otherwise dissolved in 100% DMSO. Stock solutions are kept at 4° C. for a maximum of 2 weeks, thereafter at −20° C. The compounds are pre-diluted to 1 mg/ml. Assays are performed in sterile 16-well tissue culture slides, each well containing 100 μl of the compound dilutions together with 100 μl of macrophage/parasite inoculum (4×10^5 macrophages/ml and 1.2×10^6 parasites/ml). The inoculum is prepared in RPMI-1640 medium, supplemented with 10% heat inactivated fetal calf serum. […] After 96 hours of incubation, parasite growth is microscopically assessed after staining the cells with a 10% Giemsa solution. The results are expressed as IC50 calculated by linear regression analysis. […]"}, "L-6 mammalian cells": {"system": "L-6 mammalian cells", "experiment": "Cytotoxicity assay on L-6 mammalian cells", "type": "cell-based"}, "sleeping sickness": {"system": "sleeping sickness", "settings": "cited from earlier work"}, "[8]": {"settings": "Trypanosoma brucei, RHODESIENSE"}}, "note": "Read-outs that look alike come from different tables or passages of the source.", "data": [{"smiles": "CCN(CC)CCCC(C)Nc1ccnc2cc(Cl)ccc12", "note": "(stereo not shown) [Chloroquine]", "values": [{"measurement": "IC50", "setting": "P. falciparum [1]", "value": 14, "unit": "nM"}, {"measurement": "IC50", "setting": "P. falciparum [2]; Plasmodium falciparum", "value": 5, "unit": "nM"}]}, {"smiles": "O[C@@H]1[C@@H](O)[C@H](Sc2ccccc2)O[C@@H]2CO[C@@H](c3ccccc3)O[C@@H]12", "note": "[Compound A1]", "values": [{"measurement": "IC50", "setting": "T. cruzi [3]", "value": "> 32000", "unit": "nM"}, {"measurement": "IC50", "setting": "T. brucei rhodesiense [4]; Table 1, WHO screening", "value": 187, "unit": "nM"}, {"measurement": "IC50", "setting": "human cell line (MRC-5)", "value": "> 32000", "unit": "nM"}]}, {"smiles": "OC1C(Cc2ccccc2)OC2COC(c3ccc(Cl)cc3)OC2C1O", "note": "(stereo not shown) [Compound A3]", "values": [{"measurement": "IC50", "setting": "P. falciparum [2]", "value": "> 13300", "unit": "nM"}, {"measurement": "IC50", "setting": "T. cruzi [5]", "value": 14300, "unit": "nM"}, {"measurement": "IC50", "setting": "T. brucei rhodesiense [6]", "value": 20400, "unit": "nM"}, {"measurement": "IC50", "setting": "[7]", "value": "< 980", "unit": "nM"}, {"measurement": "IC50", "setting": "L-6 mammalian cells", "value": 60000, "unit": "nM"}]}, {"smiles": "Nc1nc(N)nc(Nc2ccc([As]3SCC(CO)S3)cc2)n1", "note": "(stereo not shown) [Melarsoprol]", "values": [{"measurement": "IC50", "setting": "T. brucei rhodesiense [6]; [8]", "value": 10, "unit": "nM"}, {"measurement": "patients treated killed outright", "setting": "sleeping sickness; patients, injected", "value": "3–10%"}, {"measurement": "patients the drug fails to cure", "setting": "sleeping sickness; some areas of Africa (Omugo, Uganda; Ibba, South Sudan)", "value": "25–30%"}]}, {"smiles": "CCCCCCCCCCCCCCCCOP(=O)([O-])OCC[N+](C)(C)C", "note": "[Miltefosine]", "values": [{"measurement": "IC50", "setting": "[7]; Leishmania donovani, Macrophage", "value": 470, "unit": "nM"}]}, {"smiles": "CC1CS(=O)(=O)CCN1/N=C/c1ccc([N+](=O)[O-])o1", "note": "(stereo not shown) [Nifurtimox]", "values": [{"measurement": "IC50", "setting": "T. cruzi [3]; Trypanosoma cruzi", "value": 1240, "unit": "nM"}]}, {"smiles": "Cc1ccc(C(=O)Nc2ccc(S(=O)(=O)O)c3cc(S(=O)(=O)O)cc(S(=O)(=O)O)c23)cc1NC(=O)c1cccc(NC(=O)Nc2cccc(C(=O)Nc3cc(C(=O)Nc4ccc(S(=O)(=O)O)c5cc(S(=O)(=O)O)cc(S(=O)(=O)O)c45)ccc3C)c2)c1", "note": "[Suramin]", "values": [{"measurement": "IC50", "setting": "T. brucei rhodesiense [4]; [8]", "value": 210, "unit": "nM"}]}]}
